# Results as given in PubChem BioAssay AID1508591.
# Conditions: rat; liver microsomes; pH 7.4; 15.0 min; 1.0 µM
row,Structure (SMILES),half-life
1,COc1ccc(Cn2c(C(=O)O)c(CNCc3cccc(OC)c3)c3ccc(C)cc32)cc1,11.6 min
2,C[C@@H]1CC(=O)Nc2cccc(-c3cnn(C(C)(C)C)c3)c2N1,> 30 min
3,COC(=O)[C@H](Cc1ccc(O[S+](=O)([O-])c2cccc3cnccc23)cc1)N[S+](=O)([O-])c1ccc2cnccc2c1,1 min
4,COc1cccc(-n2ncc3c2CCCC3NC(=O)c2ccccn2)c1 (configuration not stated),11 min
5,C[C@@]1(O)[C@H](O)[C@@H](CO)O[C@H]1n1ccc(N)nc1=O,> 30 min
6,COCCn1ccc2c(C3=CCOCC3)nc(-c3ccc4c(c3)CNC4=O)cc21,9.18 min
7,COc1ccc2[nH]c(C[C@@H]3C[C@@H](C(C)C)[C@H](CNCc4ccccc4O)C=C3C)nc2n1,1.85 min
8,CCN(CC)S(=O)(=O)c1cccc(C(=O)Nc2ccc(C#N)cc2)c1,3.8 min
9,Cc1cccc(C(=O)N2CCc3cc(-c4nc(NC(=O)Cc5ccc6c(c5)OCO6)sc4C)ccc32)c1,4.4 min
10,Cc1ccc(S(=O)(=O)Nc2ccccc2C(=O)Nc2ncc(-c3ccccc3)o2)cc1,3.5 min
11,CN([C@@H](Cc1ccc(OS(=O)(=O)c2cccc3cnccc23)cc1)C(=O)N1CCN(c2ccccc2)CC1)S(=O)(=O)c1cccc2cnccc12,1 min
12,O=C(Nc1cccc(F)c1)c1cc(-c2ccc[nH]2)n[nH]1,9.45 min
13,CCOC(=O)N1CCN(Cc2nc3c(c(=O)n(C)c(=O)n3C)n2Cc2cccc(C)c2)CC1,4.9 min
14,CCCNC(=O)[C@H]1O[C@H]1C(=O)N[C@H](C(=O)N1CCC[C@@H]1C(=O)OC)C(C)CC (some centres not stated),> 30 min
15,COc1ccc(C2Nc3ccccc3C(=O)N2Cc2ccco2)cc1COc1c(C)cc(NC(C)=O)cc1C (configuration not stated),1.6 min
16,Cc1cnc(NC(=O)c2ccc(-c3cccc([N+](=O)[O-])c3)o2)s1,10 min
17,Fc1ccc(Nc2nc(-c3ccnc4ccccc34)nc3ccccc23)cc1F,27 min
18,COc1cc(-c2c(C#N)c(N)nc3c2c(C)nn3-c2ccc(F)cc2)ccc1O,> 30 min
19,O=C1Nc2ccccc2/C1=C\c1cc(Br)c(O)c(Br)c1,26 min
20,Cc1ccc(-c2cc(C(=O)NC3CCCCC3)c3ccccc3n2)cc1,9.42 min
21,COC(=O)[C@@]12OC[C@]34[C@H]([C@@H](O)[C@@H]1O)[C@@]1(C)CC(=O)C(O)=C(C)[C@@H]1C[C@H]3OC(=O)[C@H](OC(=O)/C=C(\C)C(C)C)[C@@H]24,10.1 min
22,CSc1ccccc1-c1ccc(Nc2nc(-c3ccncc3)nc3ccccc23)cc1F,5.1 min
23,COc1cc(-c2nc(Cn3nnc(C(=O)Nc4cc(C)cc(C)c4)c3C)c(C)o2)cc(OC)c1OC,20.6 min

row,Structure (SMILES),half-life
1,CC1=C(C(=O)Nc2ccc(Cl)cc2)C(c2ccccc2C)n2ncc(C(=O)Nc3ccc(C)cc3)c2N1 (configuration not stated),9.84 min
2,COc1ccc(OC)c(-c2nc3c(C#N)c[nH]n3c2NC2CCCCC2)c1,4.2 min
3,CC(C)(Nc1nc(-c2ccccc2C(F)(F)F)nc2ccccc12)c1ccc(-c2cccc(C(F)(F)F)c2)cc1,> 30 min
4,O=C1Nc2ccccc2/C1=C/c1cc(Cl)c(O)c(Cl)c1,> 30 min
5,CNc1ccc(Br)cc(C(=O)/C=C/c2ccc(OC)cc2OC)c1=O,5.16 min
6,Cn1cc(Nc2cnccc2C(=O)O)c2cccnc21,> 30 min
7,Cc1ccccc1C(=O)Nc1sc2c(c1C(=O)NCc1ccco1)CCC(C(C)(C)C)C2 (configuration not stated),23.9 min
8,CCn1ncc(NC(=O)Cn2ncc3cc(-c4cccc(OC)c4)ccc32)n1,20.4 min
9,Cc1ccc(/C=C/c2nc3ccccc3n2S(=O)(=O)c2cccc(Cl)c2)cc1,17.6 min
10,Cc1c(Cl)cccc1-n1ncc(C(=O)Nc2ccc(Br)cc2F)c1C1CCNCC1,9.8 min
11,CCc1ccc(CNc2ccc3c(c2)ncn3C(C)(C)C)cc1,9.8 min
12,CC[C@H](NC(=O)[C@H](C)NC)C(=O)N1C[C@@H](O)C[C@H]1Cc1c(-c2[nH]c3cc(F)ccc3c2C[C@H]2C[C@H](O)CN2C(=O)[C@H](CC)NC(=O)[C@H](C)NC)[nH]c2cc(F)ccc12,> 30 min
13,O=c1cc(-c2ccccc2)oc2cc(O)cc(O)c12,1.92 min
14,CC[C@H]1CN2CCc3cc(OC)c(OC)cc3[C@@H]2C[C@@H]1C[C@H]1NCCc2cc(OC)c(OC)cc21,> 30 min
15,COc1ccc(-c2nc3ccccc3c(=O)n2Cc2ccccc2)cc1COc1ccc(NC(C)=O)cc1,3.16 min
16,C#CCNC(=O)c1nc(-c2ccc([S+](C)(=O)[O-])cc2)c2cnccn12,> 30 min
17,Cc1cc(NS(=O)(=O)c2ccc3c(c2)CCC(=O)N3)ccc1F,11.6 min
18,CC1CCCCN1c1ncnc(N)c1[N+](=O)[O-] (configuration not stated),15 min
19,c1c[nH]c(C2CCN(c3ncc(-c4ccc5c(c4)OCCCO5)s3)CC2)n1,4.29 min
20,Fc1cc(F)cc(Nc2nc(-c3ccncc3)nc3ccccc23)c1,15 min
21,CCn1c(-c2nonc2N)nc2cnc(Oc3cccc(NC(=O)c4ccc(OCCN5CCOCC5)cc4)c3)cc21,6.56 min
22,C=C[C@]1(C)C[C@@H](OC(=O)CSC(C)(C)CNC(=O)[C@H](N)C(C)C)[C@]2(C)[C@H](C)CC[C@]3(CCC(=O)[C@H]32)[C@@H](C)[C@@H]1O,2.06 min
23,CN(C(=O)CNC(=O)c1cc(F)ccc1OCC(=O)Nc1ccc(I)cc1)c1ccc(F)cc1,1.74 min

row,Structure (SMILES),half-life
1,Cc1ccc(NC(=O)c2c(N3CCCC3=O)c3cc(C)ccc3n2C)c(C)c1,1.31 min
2,Cc1ccc(NS(=O)(=O)c2c(C)[nH]c(C)c2C(=O)N2CCCC2)cc1Cl,1.03 min
3,COc1ccccc1NC(=O)C1=C(C)Nc2c(C(=O)Nc3ccc(F)cc3)cnn2C1c1ccc(Cl)cc1 (configuration not stated),3.34 min
4,Cc1sc(NC(=O)Cc2ccc3c(c2)OCO3)nc1-c1ccc2c(c1)CCN2C(=O)C1CCCCC1,8.6 min
5,CCCCn1cc2c(c1-c1ccc(Br)cc1)c(=O)n(C)c(=O)n2C,7.68 min
6,CCCN(CCC)CCc1cccc2c1CC(=O)N2,2.96 min
7,O=C(Nc1cccc(S(=O)(=O)C(F)(F)F)c1)c1ccccc1NC(=O)c1ccccc1OCC(F)(F)F,> 30 min
8,CC1(C)C(=O)NC2=C1C(=O)C(=O)c1ccccc12,> 30 min
9,OCCn1cc(-c2cnc3nnn(Cc4ccc5ncccc5c4)c3n2)cn1,> 30 min
10,Cc1ccc(NS(=O)(=O)c2ccc3c(c2)NC(=O)CO3)cc1C,3.13 min
11,Oc1ccc(CNc2ccccc2C(F)(F)F)c2cccnc12,4.99 min
12,CCn1nc(C2CCN(C(=O)CCO)CC2)nc1-c1cnc(N)c(-c2nnc(C(C)(C)C)o2)n1,> 30 min
13,Cc1ccc(NC(=O)Nc2cc3c(cc2N2CCCCC2)n(C)c(=O)n3C)cc1Cl,6.3 min
14,O=C(CCCN1CCC2(CC1)C(=O)N(Cc1cccc(F)c1)CN2c1ccccc1)c1ccc(F)cc1,1.65 min
15,O=C(Nc1ccccc1F)c1nc(S(=O)(=O)Cc2ccccc2F)ncc1Cl,1.49 min
16,CCOc1ccc(NC(=O)c2nc(S(=O)(=O)Cc3ccccc3F)ncc2Cl)cc1,1.43 min
17,NC(=O)C1CCN(c2nc(-c3ccc(OC(F)(F)F)cc3)cs2)CC1,7.66 min
18,CCOc1ccc(NC(=O)CSC2=Nc3ccccc3C3=NC(CC(=O)NCc4cccs4)C(=O)N23)cc1 (configuration not stated),4.16 min
19,CCCCOc1ccc(C2c3c(oc4ccc(C)cc4c3=O)C(=O)N2CCCN(C)C)cc1OCC (configuration not stated),25.9 min
20,CC(C)COc1ccc(-c2ccc(=O)n(CC(=O)NCCc3ccccc3)n2)cc1,1.8 min
21,CC(C)C[C@H]1C(=O)N2CCC[C@H]2[C@]2(O)O[C@](NC(=O)[C@@H]3C=C4c5cccc6[nH]c(Br)c(c56)C[C@H]4N(C)C3)(C(C)C)C(=O)N12,1.59 min
